Holding throughout (assay type): cell-based
The test system of assay [1] is A549 human lung cancer cells. Put plainly: Cell Titer Blue in vitro cell viability assay, A549. The following applies: 72 h, A549 (DMEM), 3 days at 37° C. How it is done: (§1) FIG. 13: Dose Response curve for MBC0179 with A549 cells. Compound MBC0179 was incubated with A549 human lung cancer cells at the indicated concentrations for 3 days at 37° C. prior to Cell Titer Blue fluorescence-based cell viability assay. Normalized cell viability data, expressed as a percentage, are averaged from three biological replicates and standard error represented by error bars for each averaged data point (empty squares). The compound concentrations are represented on log scale on the x-axis in μM units. Data were analyzed using free software called DrFit, as described in Nature Scientific Reports, Article number: 14701, (2015). […]
(§2) The Cell Titer Blue reagent (available from Promega, Inc.) is a buffered solution containing resazurin, a compound that is converted to resorufin, a detectable fluorescent product, by metabolically active cells. The fluorescence intensity of resorufin product therefore serves as a proportional measure of the number of viable cells, permitting changes in cell viability within cancer or other cell lines to be monitored in response to the addition of cytotoxic or cytostatic agents. […] Metastases to the lungs may be conveniently quantified by a well-established clonogenic assay. […]

The test system of assay [2] is ZR-75-30 human breast cancer cells. Put plainly: Cell Titer Blue in vitro cell viability assay, ZR-75-30. The conditions noted are these: 72 h, ZR-75-30 (DMEM), 3 days at 37° C. How it is done:
as §1, with “10:” for “13:”, “ZR-75-30” for “A549”, “breast” for “lung”
as §2
For orientation: Alamar Blue is a resazurin reagent that responds to reducing activity.

In assay [3] the test system is MDA-MB-231 triple-negative human breast cancer cells. The assay can be described thus: Cell Titer Blue in vitro cell viability assay, MDA-MB-231. The conditions noted are these: MDA-MB-231, 72 h, 3 days at 37° C. How it is done: FIG. 1: Dose Response curve for MBC017 with MDA-MB-231 cells. Compound MBC017 was incubated with MDA-MB-231 triple-negative human breast cancer cells at the indicated concentrations for 3 days at 37° C. prior to Cell Titer Blue fluorescence-based cell viability assay. Normalized cell viability data, expressed as a percentage, are averaged from three biological replicates and standard error represented by error bars for each averaged data point (empty squares). The compound concentrations are represented on log scale on the x-axis in μM units. Data were analyzed using free software called DrFit, as described in Nature Scientific Reports, Article number: 14701, (2015). […] The data were not sufficient to calculate an accurate IC50 value.
A commercially available in vitro cell viability reagent (Cell Titer Blue) was employed to determine the anti-cancer effectiveness of several compounds (1-5) against multiple cancer and healthy tissue-derived cell lines. Cell lines are summarized in Table 2, as follows: All cell lines and information on each cell lines origins and characteristics were procured from ATCC (www.atcc.org). Common names and ATCC product IDs are shown in the first (leftmost) column. From the left, the second and third columns describe the organism and tissue from which each cell line was isolated. The fourth and fifth columns indicate the cell type and disease status (e.g. normal versus carcinoma) of each cell line. The sixth column provides a summary of what compounds were tested against each cell line using an in vitro cell viability assay. Peptide name IDs are shown in parenthesis for each compound, numbered 1 through 5.
The Cell Titer Blue reagent (available from Promega, Inc.) is a buffered solution containing resazurin, a compound that is converted to resorufin, a detectable fluorescent product, by metabolically active cells. The fluorescence intensity of resorufin product therefore serves as a proportional measure of the number of viable cells, permitting changes in cell viability within cancer or other cell lines to be monitored in response to the addition of cytotoxic or cytostatic agents. Various human breast tissue-derived cell lines are widely employed to study the effects of potential therapeutics against breast cancer in vitro. Human breast cancer cell lines may be subdivided into groups based upon hormone receptor status, i.e. estrogen, progesterone and human epidermal growth factor positive or negative. A healthy human breast tissue-derived cell line, hTERT-HME1 may be used to determine the effect of therapeutic agents on healthy human breast tissue in vitro. Additionally, a highly metastatic and aggressive murine (mouse) breast cancer cell line, 4T1, has been extensively used to monitor breast cancer metastasis from the mammary fat pads of mice to the lungs in order to systematically survey the anti-metastatic effectiveness of anti-cancer therapeutics in an in vivo animal model. Metastases to the lungs may be conveniently quantified by a well-established clonogenic assay. Other human tissue-derived model cell lines, representative of various cancers, other than breast cancer, may be utilized to assess the potential of anti-cancer compounds in vitro. These include, K-562 (chronic myelogenous leukemia), HEPG2 (hepatocellular carcinoma), OVCAR-3 (ovarian adenocarcinoma), SK—N—SH (neuroblastoma) and A549 (lung carcinoma). Several compounds were assayed in vitro using the Cell Titer Blue viability assay against an array of cancer cell lines of both human and murine origin plus one healthy human breast cell line (Table 1, FIGS. 1-16). A mouse 4T1 metastasis study was performed to determine the anti-metastatic potential of one compound, MBC0179 (FIG. 17).
Dimethyl sulfoxide (DMSO), Cremophor EL, methylene blue, 100× antibiotic/antimycotic solution, collagenase (Type IV), DNAse I and 6-thioguanine were available from Millipore-Sigma. […]

Assay [4] has as its system hTERT-HME1 healthy human breast epithelial cells. The assay can be described thus: Cell Titer Blue in vitro cell viability assay, hTERT-HME1. The conditions noted are these: 72 h, hTERT-HME1 (MEGM), 3 days at 37° C. How it is done:
as §1, with “6:” for “13:”, “hTERT-HME1 cells in MEGM Media.” for “A549 cells.”, “[…] healthy” for “A549”, “breast epithelial” for “lung cancer”, “cells in growth factor-rich MEGM media” for “cells”
as §2

The structures appear in SMILES notation. Non-standard residues stand in square brackets, D forms with d. Residues, ends and D or L forms follow the SMILES beside them. *: point of attachment. Palmitoyl = CCCCCCCCCCCCCCCC(=O)*

This note sets out measurements from patent US20240124520A1, “N-ACYLATED HISTIDINE DIPEPTIDES AS ANTICANCER AGENTS” (THE BOARD OF TRUSTEES OF THE LELAND STANFORD JUNIOR …, priority 2019, published 2024).

With `CCCCCCCCCCCCCCCC(=O)N[C@H](Cc1c[nH]cn1)C(=O)N[C@@H](C(=O)OCC)C(C)C` [Compound 5, N-[N-(1-oxohexadecyl)-D-histidyl]-D-valine ethyl ester] (Palmitoyl-[dH]-[dV]-OEt), the IC50 was 10.5 µM in assay [1]; 9.7 µM in assay [2]; 14.7 µM in assay [3] (MDA-MB-231 (DMEM)); 8.88 µM in assay [3] (MDA-MB-231 (MEGM)); 270 µM in assay [4].

The term IC50 denotes the midpoint of a concentration-inhibition curve.
